Measurements: US10596151B2, “Methods and pharmaceutical compositions for reducing arterial stiffness with a combination of a therapeutic agent blocking the angiotensin receptor and a therapeutic agent inhibiting the NEP enzyme” (Novartis AG, priority 2015, dated 2020)
Marks after values point to notes of the source that are not given here.

Key:
[1] = test system: elderly patients (≥60 years) with essential hypertension; assay: […] study: carotid-femoral aortic pulse wave velocity (SphygmoCor X-CEL); type: in vivo, human; conditions: for Change from baseline to 12 weeks, PWV / Change from baseline to 52 weeks, PWV: pulse wave velocity; for Change from baseline to 12 weeks, PWV: Week 12 endpoint, n = 192 LCZ696, n = 196 olmesartan; for Change from baseline to 52 weeks, PWV: week 52 endpoint, n = 199 both treatments
Method: In the context of the present invention PWV is measured as aortic PWV=aPWV. One system to measure aPWV is the SphygmoCor X-CEL system which measures the carotid-femoral aPWV, as the speed of the arterial pressure waveform as it travels through the descending aorta to the femoral artery, which is detected from simultaneously measured carotid and femoral arterial pulses. The carotid pulse is detected by applanation tonometry using a high-fidelity pressure transducer (Millar Instruments, Houston, Tex.), while the femoral pulse is detected using a partially inflated blood pressure cuff wrapped around the upper thigh. The distance travelled by the pulse wave is captured by making physical measurements on the body surface according to the manufacturer's recommendations. […] [Butlin M, Qasem A, Avolio A P. Estimation of central aortic pressure waveform features derived from the brachial cuff volume displacement waveform. Conf Proc IEEE Eng Med Biol Soc 2012; 2012:2591-4]
(§1) The study enrolled patient from 5 Dec. 2012 to 8 Apr. 2015.
The SphygmoCor X-CEL system also measures the carotid-femoral aPWV, as the speed of the arterial pressure waveform as it travels through the descending aorta to the femoral artery, which is detected from simultaneously measured carotid and femoral arterial pulses. The carotid pulse is detected by applanation tonometry using a high-fidelity pressure transducer (Millar Instruments, Houston, Tex.), while the femoral pulse is detected using a partially inflated blood pressure cuff wrapped around the upper thigh. The distance traveled by the pulse wave is captured by making physical measurements on the body surface according to the manufacturer's recommendations.

[2] = test system: elderly patients (≥60 years) with essential hypertension; assay: PARAMETER study: safety and tolerability assessments
From the text: The inclusion criteria in the study was designed to enroll patients which met the profile of elderly patients with systolic hypertension and a wide pulse pressure, a characteristic reflective of large artery (aortic) stiffness. […] The study enrolled patient from 5 Dec. 2012 to 8 Apr. 2015.
This was a 52-week study, involving 50 centers from 12 countries (across Europe, South America, Asia and the United States). […] After 12 weeks, patients with uncontrolled BP (msSBP>140 mmHg and/or mean sitting diastolic blood pressure [msDBP]>90 mmHg) were allowed the use of add-on antihypertensives (amlodipine [2.5-5.0 mg] and then hydrochlorothiazide [6.25-25.0 mg]) as needed, at an interval of 4 weeks up to Week 24.
Safety and tolerability assessments include regular monitoring and recording of all adverse events (AEs) and concomitant medications or significant non-drug therapies. Evaluations of routine blood chemistries, blood counts with white cell differential and urine analyses, physical examinations, electrocardiograms (ECGs), and monitoring of vital signs will be performed at regular intervals.

[3] = test system: elderly patients (≥60 years) with essential hypertension; assay: […] study: mean sitting (brachial) blood pressure and pulse pressure; type: in vivo, human; conditions: for Change from baseline to 12 weeks, msDBP / Change from baseline to 52 weeks, msDBP: mean sitting diastolic BP; for Change from baseline to 12 weeks, msDBP / Change from baseline to 52 weeks, msDBP / Change from baseline to 12 weeks, msPP / Change from baseline to 52 weeks, msPP / Change from baseline to 12 weeks, msSBP / Change from baseline to 52 weeks, msSBP: mean; for Change from baseline to 12 weeks, msMAP / Change from baseline to 52 weeks, msMAP: mean sitting mean arterial pressure; for Change from baseline to 12 weeks, msPP / Change from baseline to 52 weeks, msPP: mean sitting pulse pressure; for Change from baseline to 12 weeks, msSBP / Change from baseline to 52 weeks, msSBP: mean sitting systolic BP
From the text: as §1
Superiority testing is also planned for the key secondary efficacy assessment, i.e. the reduction in mean central aortic PP (CAPP) after 12 weeks of treatment, and other secondary efficacy assessments such as mean CASP and CAPP after 52 weeks of treatment. Mean aPWV, msSBP, msDBP, msPP, mean ambulatory (ma) BP, maPP, and MAP will also be measured after 12 and 52 weeks of treatment.

[4] = test system: elderly patients (≥60 years) with essential hypertension; assay: […] study: 24-hour ambulatory brachial and central blood pressure (Mobil-O-Graph); type: in vivo, human; conditions: for Change from baseline to 12 weeks, macDBP / Change from baseline to 52 weeks, macDBP: mean ambulatory central diastolic BP; for Change from baseline to 12 weeks, macDBP / Change from baseline to 52 weeks, macDBP / Change from baseline to 12 weeks, macMAP / Change from baseline to 52 weeks, macMAP / Change from baseline to 12 weeks, macPP / Change from baseline to 52 weeks, macPP / Change from baseline to 12 weeks, maMAP / Change from baseline to 52 weeks, maMAP: mean; for Change from baseline to 12 weeks, macMAP / Change from baseline to 52 weeks, macMAP: mean ambulatory central mean arterial pressure; for Change from baseline to 12 weeks, macPP / Change from baseline to 52 weeks, macPP: mean ambulatory central pulse pressure; for Change from baseline to 12 weeks, macSBP / Change from baseline to 52 weeks, macSBP: mean ambulatory central systolic BP; for Change from baseline to 12 weeks, maDBP / Change from baseline to 52 weeks, maDBP: mean ambulatory diastolic BP; for Change from baseline to 12 weeks, maMAP / Change from baseline to 52 weeks, maMAP: mean ambulatory mean arterial pressure; for Change from baseline to 12 weeks, maPP / Change from baseline to 52 weeks, maPP: mean ambulatory pulse pressure; for Change from baseline to 12 weeks, maSBP / Change from baseline to 52 weeks, maSBP: mean ambulatory systolic BP
From the text: as §1
The 24-hour maCAP and maPWA will be monitored using the oscillometric device, Mobil-0-Graph (IEM, Stolberg, Germany) with integrated ARC solver algorithms (Austrian Institute of Technology, Vienna, Austria). The traditional Mobil-O-Graph ambulatory blood pressure monitoring (ABPM) device has been available for more than a decade and through several product generations.24-27 The actual blood pressure measuring unit was validated according to the British Hypertension Society (BHS) and the European Society of Hypertension (ESH) recommendations.24,26 The method equipped with a GTF to derive aortic pressure waveforms28 is based on brachial readings acquired in the course of the conventional pressure measurement at diastolic level.
During the signal acquisition procedure, the received raw signals are separated into single waves and checked for their plausibility by means of extreme values and corresponding wavelengths using a cross-correlation approach. Poor waveforms are removed from further processing. After applying the GTF to each single waveform, the procedure is repeated.
With respect to legal issues, the Mobil-O-Graph maPWA monitor with integrated ARC solver algorithms holds approvals from CE, FDA, and JPAL (amongst others).

[5] = LCZ696 regimen vs olmesartan regimen, 52 weeks
[6] = LCZ696 regimen vs olmesartan regimen, 12 weeks, P < 0.001

## CCCCC(=O)N(Cc1ccc(-c2ccccc2-c2nn[n-]n2)cc1)C(C(=O)[O-])C(C)C.CCCCC(=O)N(Cc1ccc(-c2ccccc2-c2nn[n-]n2)cc1)C(C(=O)[O-])C(C)C.CCOC(=O)C(C)CC(Cc1ccc(-c2ccccc2)cc1)NC(=O)CCC(=O)[O-].CCOC(=O)C(C)CC(Cc1ccc(-c2ccccc2)cc1)NC(=O)CCC(=O)[O-].O.O.O.O.O.[Na+].[Na+].[Na+].[Na+].[Na+].[Na+] [LCZ696, trisodium [3-((1S,3R)-1-biphenyl-4-ylmethyl-3-ethoxycarbonyl-1-butylcarbamoyl) propionate-(S)-3′-methyl-2′-(pentanoyl{2″-(tetrazol-5-ylate)biphenyl-4′-ylmethyl}amino)butyrate]hemipentahydrate]
[1]; LCZ696 regimen vs olmesartan regimen, 12 weeks
  Between-treatment difference, PWV, 12 weeks: −0.1 (0.17)*
[1]; [5]
  Between-treatment difference, PWV, 52 weeks: −0.1 (0.18)
[1]; ad-hoc analysis, vs olmesartan regimen, both Week 12 and 52
  reduction of PWV in subgroup of patients with high baseline PWV: tended to reduce PWV to a greater extent than olmesartan regimen
[1]; both Week 12 and 52, LCZ696 vs olmesartan regimen
  difference in carotid-femoral PWV between the two regimens: no significant difference
[1]
  Change from baseline to 12 weeks, PWV: −0.7
  Change from baseline to 52 weeks, PWV: −0.8
[2]; 52-week study
  percentage of patients who discontinued the study: 19.7%
  percentage of patients who discontinued the study due to an AE: 6.6%
  percentage of patients with AEs: 57.6%
  percentage of patients with SAEs: 7.0%
  tolerability of the regimen: well tolerated
[3]; [6]
  Between-treatment difference, msMAP, 12 weeks: −3.6 (0.95)* mmHg
[3]; [5]
  Between-treatment difference, msMAP, 52 weeks: −1.5 (0.89) mmHg
[3]; 12 weeks
  Change from baseline to 12 weeks, msDBP: −5.3 mmHg
  Change from baseline to 12 weeks, msMAP: −12.2 mmHg
  Change from baseline to 12 weeks, msPP: −8.0 mmHg
  Change from baseline to 12 weeks, msSBP: −13.3 mmHg
[3]; 52 weeks
  Change from baseline to 52 weeks, msDBP: −8.1 mmHg
  Change from baseline to 52 weeks, msMAP: −13.9 mmHg
  Change from baseline to 52 weeks, msPP: −9.1 mmHg
  Change from baseline to 52 weeks, msSBP: −17.2 mmHg
[4]; [6]
  Between-treatment difference, maDBP, 12 weeks: −2.0 (0.51)* mmHg
  Between-treatment difference, maPP, 12 weeks: −2.1 (0.49)* mmHg
  Between-treatment difference, maSBP, 12 weeks: −4.1 (0.87)* mmHg
  Between-treatment difference, macSBP, 12 weeks: −3.4 (0.84)* mmHg
[4]; [5]
  Between-treatment difference, maDBP, 52 weeks: −0.4 (0.48) mmHg
  Between-treatment difference, maPP, 52 weeks: 0.6 (0.50) mmHg
  Between-treatment difference, maSBP, 52 weeks: 0.2 (0.82) mmHg
  Between-treatment difference, macSBP, 52 weeks: 0.6 (0.79) mmHg
[4]; after 12-week monotherapy
  24-hour ambulatory SBP compared to olmesartan: lowered 24-hour ambulatory SBP compared to olmesartan
[4]; 12 weeks
  Change from baseline to 12 weeks, macDBP: −7.5 mmHg
  Change from baseline to 12 weeks, macMAP: −9.0 mmHg
  Change from baseline to 12 weeks, macPP: −4.4 mmHg
  Change from baseline to 12 weeks, macSBP: −12.1 mmHg
  Change from baseline to 12 weeks, maDBP: −7.4 mmHg
  Change from baseline to 12 weeks, maMAP: −10.0 mmHg
  Change from baseline to 12 weeks, maPP: −5.8 mmHg
  Change from baseline to 12 weeks, maSBP: −13.2 mmHg
[4]; 52 weeks
  Change from baseline to 52 weeks, macDBP: −9.0 mmHg
  Change from baseline to 52 weeks, macMAP: −10.33 mmHg
  Change from baseline to 52 weeks, macPP: −4.1 mmHg
  Change from baseline to 52 weeks, macSBP: −13.0 mmHg
  Change from baseline to 52 weeks, maDBP: −8.8 mmHg
  Change from baseline to 52 weeks, maMAP: −11.2 mmHg
  Change from baseline to 52 weeks, maPP: −5.3 mmHg
  Change from baseline to 52 weeks, maSBP: −14.1 mmHg

## CCCc1nc(C(C)(C)O)c(C(=O)O)n1Cc1ccc(-c2ccccc2-c2nnn[nH]2)cc1 [Olmesartan, reference compound]
[1]
  Change from baseline to 12 weeks, PWV: −0.6
  Change from baseline to 52 weeks, PWV: −0.8
[2]; human, in vivo, 52 weeks
  percentage of patients who discontinued the study: 18.7%
  percentage of patients who discontinued the study due to an AE: 5.3%
  percentage of patients with AEs: 53.8%
  percentage of patients with SAEs: 5.8%
[3]; 12 weeks
  Change from baseline to 12 weeks, msDBP: −5.2 mmHg
  Change from baseline to 12 weeks, msMAP: −8.6 mmHg
  Change from baseline to 12 weeks, msPP: −4.5 mmHg
  Change from baseline to 12 weeks, msSBP: −9.7 mmHg
[3]; 52 weeks
  Change from baseline to 52 weeks, msDBP: −8.5 mmHg
  Change from baseline to 52 weeks, msMAP: −12.4 mmHg
  Change from baseline to 52 weeks, msPP: −7.6 mmHg
  Change from baseline to 52 weeks, msSBP: −16.0 mmHg
[4]; 12 weeks
  Change from baseline to 12 weeks, macDBP: −5.8 mmHg
  Change from baseline to 12 weeks, macMAP: −6.75 mmHg
  Change from baseline to 12 weeks, macPP: −2.9 mmHg
  Change from baseline to 12 weeks, macSBP: −8.7 mmHg
  Change from baseline to 12 weeks, maDBP: −5.5 mmHg
  Change from baseline to 12 weeks, maMAP: −7.1 mmHg
  Change from baseline to 12 weeks, maPP: −3.7 mmHg
  Change from baseline to 12 weeks, maSBP: −9.1 mmHg
[4]; 52 weeks
  Change from baseline to 52 weeks, macDBP: −9.1 mmHg
  Change from baseline to 52 weeks, macMAP: −10.6 mmHg
  Change from baseline to 52 weeks, macPP: −4.6 mmHg
  Change from baseline to 52 weeks, macSBP: −13.7 mmHg
  Change from baseline to 52 weeks, maDBP: −8.4 mmHg
  Change from baseline to 52 weeks, maMAP: −11.1 mmHg
  Change from baseline to 52 weeks, maPP: −5.9 mmHg
  Change from baseline to 52 weeks, maSBP: −14.3 mmHg
